In patent US20090264401A1, “SUBSTITUTED PYRIMIDIN-5-CARBOXAMIDES 281” (AstraZeneca AB, priority 2008, published 2009) one finds inhibition data, which are given here for 23 compounds.

For this test, the target named is T1, human 11βHSD1 enzyme (Homo sapiens, UniProt P28845).
T1 construct: baculovirus expressed N terminal 6-His tagged full length human 11βHSD1 enzyme; 6-His (N); made in house
Description: 11βHSD1 cortisone to cortisol conversion, competitive HTRF assay. The format is biochemical. As to conditions: human 11-βHSD; test concentration of 30 μM of compound. How it is done:
The evaluation of compounds described herein was carried out using a baculovirus expressed N terminal 6-His tagged full length human 11βHSD1 enzyme(*1). The enzyme was purified from a detergent solubilised cell lysate, using a copper chelate column. Inhibitors of 11βHSD1 reduce the conversion of cortisone to cortisol, which is identified by an increase in signal, in the above assay.
Compounds to be tested were dissolved in dimethyl sulphoxide (DMSO) to 10 mM and diluted further in assay buffer containing 1% DMSO to 10 fold the final assay concentration. Diluted compounds were then plated into black 384 well plates (Matrix, Hudson N.H., USA).
Fluorescence at 665 nm and 620 nm was measured and the 665 nm:620 nm ratio calculated using an Envision plate reader.
In general terms: Time-resolved FRET reads energy transfer from a long-lived donor to a nearby acceptor.

Structures are written as SMILES.

T1 sequence (P28845 whole entry): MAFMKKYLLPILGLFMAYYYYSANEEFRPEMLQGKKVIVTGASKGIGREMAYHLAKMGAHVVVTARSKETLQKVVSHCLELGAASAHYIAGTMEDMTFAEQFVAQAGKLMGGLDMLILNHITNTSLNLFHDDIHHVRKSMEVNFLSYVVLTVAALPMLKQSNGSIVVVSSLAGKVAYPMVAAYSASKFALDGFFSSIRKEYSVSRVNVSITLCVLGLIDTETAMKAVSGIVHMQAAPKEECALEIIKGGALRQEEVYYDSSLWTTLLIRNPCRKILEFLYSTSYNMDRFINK

By inhibition is commonly meant the relative decrease from the control value, in per cent. Regarding `C[C@@H]1CN(c2ncc(C(=O)N[C@H]3C4CC5CC3C[C@@](O)(C5)C4)c(C3CC3)n2)C[C@H](C)O1` [Example 42, 4-Cyclopropyl-2-(2,6-dimethylmorpholin-4-yl)-N-[(2r,5s)-5-hydroxyadamantan-2-yl]pyrimidine-5-carboxamide], the inhibition at 30 µM was 99.4%.
In the case of `O=C(N[C@H]1C2CC3CC1C[C@@](O)(C3)C2)c1cnc(N2CCCSCC2)nc1C1CC1` [Example 43, 4-Cyclopropyl-N-[(2r,5s)-5-hydroxyadamantan-2-yl]-2-(1,4-thiazepan-4-yl)pyrimidine-5-carboxamide], the inhibition at 30 µM turned out to be 99.2%.
The value for `O=C(N[C@H]1C2CC3CC1C[C@@](O)(C3)C2)c1cnc(N2CCC[S+]([O-])CC2)nc1C1CC1` (some centres unmarked) [Example 44, 4-Cyclopropyl-N-[(2r,5s)-5-hydroxyadamantan-2-yl]-2-(1-oxo-1,4-thiazepan-4-yl)pyrimidine-5-carboxamide] was 98%.
The value for `O=C(N[C@H]1C2CC3CC1C[C@@](O)(C3)C2)c1cnc(N2CCCS(=O)(=O)CC2)nc1C1CC1` [Example 45, 4-Cyclopropyl-2-(1,1-dioxo-1,4-thiazepan-4-yl)-N-[(2r,5s)-5-hydroxyadamantan-2-yl]pyrimidine-5-carboxamide] was 98.5%.
The value for `O=C(N[C@H]1C2CC3CC1C[C@@](O)(C3)C2)c1cnc(N2CC3CC2CS3)nc1C1CC1` [Example 46, 4-Cyclopropyl-N-[(2r,5s)-5-hydroxyadamantan-2-yl]-2-(3-thia-6-azabicyclo[2.2.1]heptan-6-yl)pyrimidine-5-carboxamide] was 104%.
For `O=C(N[C@H]1C2CC3CC1C[C@@](O)(C3)C2)c1cnc(N2CC3CC2C[S+]3[O-])nc1C1CC1` (some centres unmarked) [Example 47, 4-Cyclopropyl-N-[(2r,5s)-5-hydroxyadamantan-2-yl]-2-(3-oxo-3 ?4-thia-6-azabicyclo[2.2.1]heptan-6-yl)pyrimidine-5-carboxamide], the inhibition at 30 µM was found to be 97.3%.
The value for `O=C(N[C@H]1C2CC3CC1C[C@@](O)(C3)C2)c1cnc(N2CC3CC2CS3(=O)=O)nc1C1CC1` [Example 48, 4-Cyclopropyl-2-(3,3-dioxo-3λ6-thia-6-azabicyclo[2.2.1]heptan-6-yl)-N-[(2r,5 s)-5-hydroxyadamantan-2-yl]pyrimidine-5-carboxamide] was 100%; that for `Nc1ncc(C(=O)N[C@H]2C3CC4CC2C[C@@](O)(C4)C3)c(C2CC2)n1` [Example 49, 2-Amino-4-cyclopropyl-N-[(2r,5s)-5-hydroxyadamantan-2-yl]pyrimidine-5-carboxamide] was 99.3%; that for `O=C(N[C@H]1C2CC3CC1C[C@@](O)(C3)C2)c1cnc(N2CC(F)(F)C2)nc1C1CC1` [Example 52, 4-cyclopropyl-2-(3,3-difluoroazetidin-1-yl)-N-[(2r,5s)-5-hydroxyadamantan-2-yl]pyrimidine-5-carboxamide] was 92.5%.
The value for `O=C(N[C@H]1C2CC3CC1C[C@@](O)(C3)C2)c1cnc(N2CCC2)nc1C1CC1` [Example 53, 2-(azetidin-1-yl)-4-cyclopropyl-N-[(2r,5s)-5-hydroxyadamantan-2-yl]pyrimidine-5-carboxamide] was 102%.
Next, `O=C(N[C@H]1C2CC3CC1C[C@@](O)(C3)C2)c1cnc(NC2CCC2)nc1C1CC1` [Example 54, (cyclobutylamino)-4-cyclopropyl-N-[(2r,5s)-5-hydroxyadamantan-2-yl]pyrimidine-5-carboxamide]: 102%; `COCCN1CCN(c2ncc(C(=O)N[C@H]3C4CC5CC3C[C@@](O)(C5)C4)c(C3CC3)n2)CC1` [Example 55, 4-cyclopropyl-N-[(2r,5s)-5-hydroxyadamantan-2-yl]-2-[4-(2-methoxyethyl)piperazin-1-yl]pyrimidine-5-carboxamide]: 96.9%; `O=C(N[C@H]1C2CC3CC1C[C@@](O)(C3)C2)c1cnc(NC2CC2)nc1C1CC1` [Example 56, 4-cyclopropyl-2-(cyclopropylamino)-N-[(2r,5s)-5-hydroxyadamantan-2-yl]pyrimidine-5-carboxamide]: 90.2%.
Regarding `O=C(N[C@H]1C2CC3CC1C[C@@](O)(C3)C2)c1cnc(NC2CCCC2)nc1C1CC1` [Example 57, 2-(cyclopentylamino)-4-cyclopropyl-N-[(2r,5s)-5-hydroxyadamantan-2-yl]pyrimidine-5-carboxamide], the inhibition at 30 µM came to 102%.
The value for `O=C(N[C@H]1C2CC3CC1C[C@@](O)(C3)C2)c1cnc(N2C[C@@H]3C[C@H]2CO3)nc1C1CC1` [Example 58, 4-cyclopropyl-N-[(2r,5s)-5-hydroxyadamantan-2-yl]-2-[(1S,4S)-2-oxa-5-azabicyclo[2.2.1]hept-5-yl]pyrimidine-5-carboxamide] was 99.6%; that for `O=C(N[C@H]1C2CC3CC1C[C@@](O)(C3)C2)c1cnc(N2CCOC(CO)C2)nc1C1CC1` (some centres unmarked) [Example 59, 4-cyclopropyl-N-[(2r,5s)-5-hydroxyadamantan-2-yl]-2-[2-(hydroxymethyl)morpholin-4-yl]pyrimidine-5-carboxamide] was 95.6%.
The value for `O=C(N[C@H]1C2CC3CC1C[C@@](O)(C3)C2)c1cnc(N2CCOCC2CO)nc1C1CC1` (some centres unmarked) [Example 60, 4-cyclopropyl-N-[(2r,5s)-5-hydroxyadamantan-2-yl]-2-[3-(hydroxymethyl)morpholin-4-yl]pyrimidine-5-carboxamide] was 95.1%; that for `CN(C)c1ncc(C(=O)N[C@H]2C3CC4CC2C[C@@](O)(C4)C3)c(C2CC2)n1` [Example 61, 4-cyclopropyl-2-(dimethylamino)-N-[(2r,5s)-5-hydroxyadamantan-2-yl]pyrimidine-5-carboxamide] was 105%; that for `C[C@@H]1CN(c2ncc(C(=O)N[C@H]3C4CC5CC3C[C@@](O)(C5)C4)c(C3CC3)n2)C[C@H](C)N1` [Example 62, 4-cyclopropyl-2-[(3R,5S)-3,5-dimethylpiperazin-1-yl]-N-[(2r,5s)-5-hydroxyadamantan-2-yl]pyrimidine-5-carboxamide] was 99.9%.
The value for `C[C@@H]1CN(c2ncc(C(=O)N[C@H]3C4CC5CC3C[C@@](O)(C5)C4)c(C3CC3)n2)C[C@@H](C)O1` [Example 63, 4-cyclopropyl-2-[(2R,6R)-2,6-dimethylmorpholin-4-yl]-N-[(2r,5s)-5-hydroxyadamantan-2-yl]pyrimidine-5-carboxamide] was 92.7%; that for `CC(C)Nc1ncc(C(=O)N[C@H]2C3CC4CC2C[C@@](O)(C4)C3)c(C2CC2)n1` [Example 64, 4-cyclopropyl-N-[(2r,5s)-5-hydroxyadamantan-2-yl]-2-(isopropylamino)pyrimidine-5-carboxamide] was 95.9%.
`O=C(N[C@H]1C2CC3CC1C[C@@](O)(C3)C2)c1cnc(NC2CCS(=O)(=O)CC2)nc1C1CC1` [Example 68, 4-cyclopropyl-2-[(1,1-dioxidotetrahydro-2H-thiopyran-4-yl)amino]-N-[(2r,5s)-5-hydroxyadamantan-2-yl]pyrimidine-5-carboxamide]: the inhibition at 30 µM was determined as 98.3%.
Next, `O=C(N[C@H]1C2CC3CC1C[C@@](O)(C3)C2)c1cnc(NCCO)nc1C1CC1` [Example 69, 4-cyclopropyl-N-[(2r,5s)-5-hydroxyadamantan-2-yl]-2-[(2-hydroxyethyl)amino]pyrimidine-5-carboxamide]: 102%.
